Two compounds from ChEMBL document CHEMBL5696442, “Discovery of type II inhibitors of TGFβ-activated kinase 1 (TAK1) and mitogen-activated protein kinase kinase kinase kinase 2 (MAP4K2)” (J Med Chem, 2015) can be followed below.

Molecules are shown by their SMILES.

The target of assay [1] is Proto-oncogene tyrosine-protein kinase Src (Homo sapiens, UniProt P12931). Put plainly: Inhibition of SRC Lys1 labeling site in human A-375 cells at 0.5 uM by KiNativ Profiling analysis relative to control. Type of assay: cell-based.
The target of assay [2] is Tyrosine-protein kinase CSK (Homo sapiens, UniProt P41240). Put plainly: Inhibition of CSK (unknown origin) ACT labeling site by KiNativ Profiling analysis.
The target in assay [3] is T1, Kinase suppressor of Ras 2 (Homo sapiens) (UniProt Q6VAB6).
T1 sequence (whole entry): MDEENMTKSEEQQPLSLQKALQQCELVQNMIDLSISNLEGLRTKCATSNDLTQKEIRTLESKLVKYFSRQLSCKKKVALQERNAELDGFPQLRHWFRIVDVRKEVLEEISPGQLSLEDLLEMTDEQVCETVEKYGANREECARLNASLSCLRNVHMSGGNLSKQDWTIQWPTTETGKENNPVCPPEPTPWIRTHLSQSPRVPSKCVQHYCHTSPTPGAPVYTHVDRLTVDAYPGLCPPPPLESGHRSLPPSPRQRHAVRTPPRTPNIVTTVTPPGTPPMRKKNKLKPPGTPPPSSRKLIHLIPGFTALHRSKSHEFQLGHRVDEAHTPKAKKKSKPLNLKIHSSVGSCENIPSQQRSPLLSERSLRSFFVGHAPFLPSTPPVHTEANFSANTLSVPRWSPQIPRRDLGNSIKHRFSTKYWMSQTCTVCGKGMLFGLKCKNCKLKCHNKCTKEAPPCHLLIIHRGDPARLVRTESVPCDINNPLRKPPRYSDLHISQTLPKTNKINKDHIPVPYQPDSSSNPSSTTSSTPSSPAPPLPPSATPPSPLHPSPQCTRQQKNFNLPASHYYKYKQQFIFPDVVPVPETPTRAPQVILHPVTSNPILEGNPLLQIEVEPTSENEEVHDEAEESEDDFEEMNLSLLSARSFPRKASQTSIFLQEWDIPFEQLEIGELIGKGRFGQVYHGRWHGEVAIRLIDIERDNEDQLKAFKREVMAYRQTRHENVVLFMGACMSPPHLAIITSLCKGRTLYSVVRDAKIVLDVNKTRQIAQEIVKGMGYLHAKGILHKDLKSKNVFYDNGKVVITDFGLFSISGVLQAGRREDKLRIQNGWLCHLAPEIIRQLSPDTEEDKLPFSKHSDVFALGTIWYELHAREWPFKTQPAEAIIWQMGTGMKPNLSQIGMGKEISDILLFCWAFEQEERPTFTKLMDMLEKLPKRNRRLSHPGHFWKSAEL
Briefly: Inhibition of KSR2 ACT labeling site in human A-375 cells at 5 uM by KiNativ Profiling analysis relative to control. Type of assay: cell-based.

Assay [4] concerns the target T2, Mixed lineage kinase domain-like protein (Homo sapiens) (UniProt Q8NB16).
T2 sequence (whole entry): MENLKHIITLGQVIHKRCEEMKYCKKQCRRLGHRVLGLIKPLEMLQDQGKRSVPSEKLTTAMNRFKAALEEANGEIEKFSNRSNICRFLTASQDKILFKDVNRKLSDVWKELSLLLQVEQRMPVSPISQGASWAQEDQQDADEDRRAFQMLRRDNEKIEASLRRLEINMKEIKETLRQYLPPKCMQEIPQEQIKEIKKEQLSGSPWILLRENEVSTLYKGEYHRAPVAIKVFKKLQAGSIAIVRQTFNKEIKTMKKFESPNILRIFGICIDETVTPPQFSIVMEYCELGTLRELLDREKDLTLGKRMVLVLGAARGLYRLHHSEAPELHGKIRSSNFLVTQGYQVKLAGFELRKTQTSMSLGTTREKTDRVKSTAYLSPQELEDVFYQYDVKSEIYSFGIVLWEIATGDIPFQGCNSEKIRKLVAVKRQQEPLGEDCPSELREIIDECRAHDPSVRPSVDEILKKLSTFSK
Put plainly: Inhibition of MLKL Lys1 labeling site in human A-375 cells at 0.5 uM by KiNativ Profiling analysis relative to control. Type of assay: cell-based.

Assay [5] deals with T3, Aurora kinase C (Homo sapiens) (UniProt Q9UQB9).
T3 sequence (whole entry): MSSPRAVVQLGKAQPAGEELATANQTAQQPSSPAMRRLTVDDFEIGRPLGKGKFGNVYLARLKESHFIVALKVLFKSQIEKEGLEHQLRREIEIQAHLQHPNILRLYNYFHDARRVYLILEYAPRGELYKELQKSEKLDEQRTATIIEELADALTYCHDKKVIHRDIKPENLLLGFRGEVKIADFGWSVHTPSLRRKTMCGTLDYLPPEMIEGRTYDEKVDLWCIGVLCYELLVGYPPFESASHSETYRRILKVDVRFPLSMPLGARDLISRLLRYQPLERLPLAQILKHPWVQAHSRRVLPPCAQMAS
Briefly: Inhibition of AurC ATP Loop labeling site in human A-375 cells at 0.05 uM by KiNativ Profiling analysis relative to control. Type of assay: cell-based.

The target in assay [6] is Cyclin-dependent kinase 9 (Homo sapiens) (UniProt P50750). Put plainly: Inhibition of CDK9 Lys2 labeling site in human A-375 cells at 0.05 uM by KiNativ Profiling analysis relative to control. Format: cell-based.
In assay [7] the target is T4, Dual specificity mitogen-activated protein kinase kinase 3 (Homo sapiens) (UniProt P46734).
T4 sequence (whole entry): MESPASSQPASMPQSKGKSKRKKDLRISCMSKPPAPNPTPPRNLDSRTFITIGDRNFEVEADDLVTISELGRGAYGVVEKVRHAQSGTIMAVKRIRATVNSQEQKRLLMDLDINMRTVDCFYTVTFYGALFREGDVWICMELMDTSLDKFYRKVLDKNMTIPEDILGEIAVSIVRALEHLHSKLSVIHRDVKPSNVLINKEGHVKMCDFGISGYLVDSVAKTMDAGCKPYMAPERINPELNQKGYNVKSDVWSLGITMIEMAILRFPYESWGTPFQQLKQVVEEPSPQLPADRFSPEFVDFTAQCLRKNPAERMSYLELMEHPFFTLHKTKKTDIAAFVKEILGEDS
Briefly: Inhibition of MAP2K3 Lys2 labeling site in human A-375 cells at 0.05 uM by KiNativ Profiling analysis relative to control. Type of assay: cell-based.

Assay [8] concerns the target Phosphatidylinositol 3-kinase catalytic subunit type 3 (Homo sapiens) (UniProt Q8NEB9). Briefly: Inhibition of PIK3C3 ATP labeling site in human A-375 cells at 0.05 uM by KiNativ Profiling analysis relative to control. Type of assay: cell-based.
Assay [9] deals with Serine/threonine-protein kinase WNK2 (Homo sapiens) (UniProt Q9Y3S1). Briefly: Inhibition of Wnk2 Lys2 labeling site in human A-375 cells at 0.05 uM by KiNativ Profiling analysis relative to control. Type of assay: cell-based.
Serine/threonine-protein kinase WNK2 (Homo sapiens), sequence (Q9Y3S1 whole entry): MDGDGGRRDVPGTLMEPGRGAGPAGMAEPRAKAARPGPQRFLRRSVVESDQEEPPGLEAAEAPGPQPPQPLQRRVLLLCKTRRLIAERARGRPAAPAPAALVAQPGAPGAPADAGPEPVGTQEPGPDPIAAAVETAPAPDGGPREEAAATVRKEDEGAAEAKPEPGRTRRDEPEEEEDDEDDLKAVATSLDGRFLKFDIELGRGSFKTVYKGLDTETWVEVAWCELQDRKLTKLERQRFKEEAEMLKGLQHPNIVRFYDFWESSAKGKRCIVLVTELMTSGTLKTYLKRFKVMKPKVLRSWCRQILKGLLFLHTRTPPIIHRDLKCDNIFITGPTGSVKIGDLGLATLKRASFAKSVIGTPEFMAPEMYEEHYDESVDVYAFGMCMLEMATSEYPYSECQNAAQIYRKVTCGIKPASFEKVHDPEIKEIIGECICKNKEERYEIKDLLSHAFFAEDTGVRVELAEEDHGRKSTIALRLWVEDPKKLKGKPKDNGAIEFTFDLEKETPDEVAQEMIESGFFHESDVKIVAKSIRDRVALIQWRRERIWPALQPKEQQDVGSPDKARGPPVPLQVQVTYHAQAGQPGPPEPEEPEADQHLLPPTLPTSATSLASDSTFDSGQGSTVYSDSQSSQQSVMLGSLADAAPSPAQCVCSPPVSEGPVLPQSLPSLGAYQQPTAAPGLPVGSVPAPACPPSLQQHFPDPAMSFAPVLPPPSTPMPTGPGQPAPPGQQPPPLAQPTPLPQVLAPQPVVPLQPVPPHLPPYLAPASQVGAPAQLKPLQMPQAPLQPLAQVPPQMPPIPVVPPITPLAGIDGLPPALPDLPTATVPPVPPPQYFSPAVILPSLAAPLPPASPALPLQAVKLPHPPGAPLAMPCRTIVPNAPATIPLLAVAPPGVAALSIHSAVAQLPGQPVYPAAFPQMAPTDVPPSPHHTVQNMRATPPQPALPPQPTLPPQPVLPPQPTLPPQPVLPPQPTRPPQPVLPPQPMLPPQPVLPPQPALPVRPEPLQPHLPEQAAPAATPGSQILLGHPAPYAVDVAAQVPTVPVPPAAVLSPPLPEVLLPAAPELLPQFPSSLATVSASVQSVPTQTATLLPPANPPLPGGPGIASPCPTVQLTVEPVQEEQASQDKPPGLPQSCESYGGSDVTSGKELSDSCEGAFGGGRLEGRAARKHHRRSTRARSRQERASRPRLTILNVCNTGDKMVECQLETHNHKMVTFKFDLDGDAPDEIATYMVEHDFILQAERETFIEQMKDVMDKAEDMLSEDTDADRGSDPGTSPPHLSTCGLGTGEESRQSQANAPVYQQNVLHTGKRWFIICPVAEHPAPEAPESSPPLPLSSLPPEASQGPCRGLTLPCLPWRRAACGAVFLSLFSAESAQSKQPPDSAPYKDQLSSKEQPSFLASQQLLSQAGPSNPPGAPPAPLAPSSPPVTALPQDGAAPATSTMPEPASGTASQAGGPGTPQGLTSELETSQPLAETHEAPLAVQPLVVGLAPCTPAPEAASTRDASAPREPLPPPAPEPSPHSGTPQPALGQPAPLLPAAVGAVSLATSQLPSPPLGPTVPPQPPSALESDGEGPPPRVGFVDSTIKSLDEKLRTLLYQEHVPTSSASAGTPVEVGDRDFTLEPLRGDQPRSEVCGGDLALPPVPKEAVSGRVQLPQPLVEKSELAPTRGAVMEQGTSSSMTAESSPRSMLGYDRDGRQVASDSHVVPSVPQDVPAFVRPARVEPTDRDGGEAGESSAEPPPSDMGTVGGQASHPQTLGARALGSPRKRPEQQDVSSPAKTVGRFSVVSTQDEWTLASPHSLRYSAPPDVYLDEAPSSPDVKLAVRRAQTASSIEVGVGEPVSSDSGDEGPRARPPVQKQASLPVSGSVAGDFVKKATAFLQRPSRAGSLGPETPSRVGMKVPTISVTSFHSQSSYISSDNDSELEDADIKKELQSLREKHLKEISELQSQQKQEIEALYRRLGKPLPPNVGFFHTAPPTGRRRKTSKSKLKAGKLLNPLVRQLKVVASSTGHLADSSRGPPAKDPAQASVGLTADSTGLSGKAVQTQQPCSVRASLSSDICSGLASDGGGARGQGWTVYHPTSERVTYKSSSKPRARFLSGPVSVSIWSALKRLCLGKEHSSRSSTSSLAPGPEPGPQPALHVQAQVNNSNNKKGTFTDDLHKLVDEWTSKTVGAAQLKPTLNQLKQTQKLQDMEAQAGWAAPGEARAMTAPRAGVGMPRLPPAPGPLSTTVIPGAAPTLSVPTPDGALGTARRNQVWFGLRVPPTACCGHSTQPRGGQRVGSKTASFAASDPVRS

Phosphatidylinositol 3-kinase catalytic subunit type 3 (Homo sapiens), sequence (Q8NEB9 whole entry): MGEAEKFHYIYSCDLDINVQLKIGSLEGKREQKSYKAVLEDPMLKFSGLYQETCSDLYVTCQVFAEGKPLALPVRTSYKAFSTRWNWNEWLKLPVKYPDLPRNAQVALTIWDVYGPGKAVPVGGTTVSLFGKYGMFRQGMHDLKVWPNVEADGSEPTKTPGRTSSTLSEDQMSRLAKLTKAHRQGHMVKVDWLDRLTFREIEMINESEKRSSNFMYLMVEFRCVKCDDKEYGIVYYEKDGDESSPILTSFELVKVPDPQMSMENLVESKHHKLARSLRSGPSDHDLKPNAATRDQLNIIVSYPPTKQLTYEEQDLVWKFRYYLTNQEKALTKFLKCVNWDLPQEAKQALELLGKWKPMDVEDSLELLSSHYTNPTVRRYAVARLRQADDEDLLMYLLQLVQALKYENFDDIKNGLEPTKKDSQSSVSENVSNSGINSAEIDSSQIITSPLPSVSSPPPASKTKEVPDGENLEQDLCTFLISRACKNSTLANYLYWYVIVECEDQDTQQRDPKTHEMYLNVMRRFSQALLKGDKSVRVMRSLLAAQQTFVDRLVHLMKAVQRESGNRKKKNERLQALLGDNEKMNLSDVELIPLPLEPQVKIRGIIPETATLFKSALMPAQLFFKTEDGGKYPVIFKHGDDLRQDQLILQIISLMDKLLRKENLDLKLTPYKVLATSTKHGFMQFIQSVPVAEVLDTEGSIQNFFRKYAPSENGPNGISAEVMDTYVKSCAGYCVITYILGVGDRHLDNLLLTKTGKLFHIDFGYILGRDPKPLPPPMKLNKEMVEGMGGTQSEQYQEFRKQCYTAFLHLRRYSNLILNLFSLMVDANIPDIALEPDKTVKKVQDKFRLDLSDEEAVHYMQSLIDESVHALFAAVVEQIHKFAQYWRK
Tyrosine-protein kinase CSK, sequence (P41240 whole entry): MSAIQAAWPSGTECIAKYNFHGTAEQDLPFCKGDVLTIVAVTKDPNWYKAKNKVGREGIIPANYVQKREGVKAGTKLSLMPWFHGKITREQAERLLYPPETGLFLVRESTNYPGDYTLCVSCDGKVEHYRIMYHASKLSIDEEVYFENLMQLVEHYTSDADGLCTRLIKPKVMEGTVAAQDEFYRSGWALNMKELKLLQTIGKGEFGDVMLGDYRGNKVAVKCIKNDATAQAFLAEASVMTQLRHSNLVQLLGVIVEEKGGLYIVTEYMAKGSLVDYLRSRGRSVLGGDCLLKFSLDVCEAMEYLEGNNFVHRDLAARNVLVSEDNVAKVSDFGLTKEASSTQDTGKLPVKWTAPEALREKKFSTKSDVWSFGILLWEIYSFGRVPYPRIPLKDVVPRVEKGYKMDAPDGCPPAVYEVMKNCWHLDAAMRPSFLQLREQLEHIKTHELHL
Proto-oncogene tyrosine-protein kinase Src, sequence (P12931 2-536 limits assumed): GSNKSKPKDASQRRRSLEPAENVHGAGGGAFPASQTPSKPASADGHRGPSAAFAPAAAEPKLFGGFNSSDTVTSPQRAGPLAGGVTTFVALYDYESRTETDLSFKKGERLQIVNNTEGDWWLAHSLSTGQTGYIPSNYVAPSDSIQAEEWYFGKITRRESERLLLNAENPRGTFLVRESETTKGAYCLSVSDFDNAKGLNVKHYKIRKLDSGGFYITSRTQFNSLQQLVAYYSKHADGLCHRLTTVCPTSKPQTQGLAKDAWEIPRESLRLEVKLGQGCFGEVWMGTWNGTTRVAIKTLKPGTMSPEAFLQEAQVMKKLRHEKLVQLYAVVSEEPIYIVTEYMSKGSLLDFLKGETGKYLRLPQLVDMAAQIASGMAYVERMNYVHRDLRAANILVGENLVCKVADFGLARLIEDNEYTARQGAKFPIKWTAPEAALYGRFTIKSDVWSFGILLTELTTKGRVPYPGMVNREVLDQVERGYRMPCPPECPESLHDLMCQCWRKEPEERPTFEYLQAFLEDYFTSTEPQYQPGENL
Cyclin-dependent kinase 9 (Homo sapiens), sequence (P50750 whole entry): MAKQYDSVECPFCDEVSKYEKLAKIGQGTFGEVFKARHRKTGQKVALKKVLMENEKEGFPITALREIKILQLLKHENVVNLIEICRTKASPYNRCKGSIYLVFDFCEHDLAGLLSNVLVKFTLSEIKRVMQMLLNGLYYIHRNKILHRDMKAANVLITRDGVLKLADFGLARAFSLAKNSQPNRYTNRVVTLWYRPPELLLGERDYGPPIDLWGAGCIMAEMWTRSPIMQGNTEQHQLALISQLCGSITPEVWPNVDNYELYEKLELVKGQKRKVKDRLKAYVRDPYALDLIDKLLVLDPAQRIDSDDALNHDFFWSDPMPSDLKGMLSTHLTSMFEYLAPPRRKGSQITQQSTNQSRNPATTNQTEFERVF

Turning to `CCN1CCN(Cc2ccc(NC(=O)c3ccc(C)c(/C=C/c4cnc5[nH]ccc5c4OC)c3)cc2C(F)(F)F)CC1`, the inhibition (usually the drop in the measured response relative to a control, in per cent) in assay [1] was 72.5%; in [3], 12.2%; in assay [4], 20.1%; in assay [5], 14.1%; in assay [6], 10.7%; in assay [7], 2.6%. The inhibition in [8] is 38.2%; in assay [9], 7.1%. The IC50 (commonly the point on the concentration scale where inhibition reaches its midpoint) in [2] stood at 80.9 nM.

For the compound `CCN1CCN(Cc2ccc(NC(=O)c3ccc(C)c(Oc4ccnc5[nH]ccc45)c3)cc2C(F)(F)F)CC1`, the inhibition in assay [1] turned out to be 77.2%; in assay [3], 32.1%; in assay [4], 7.8%; in assay [5], 32.5%; in assay [6] it was 15.4%; in assay [7], 12.6%. Also, the inhibition in [8] was 33.3%; in [9], -3.5%. This compound yielded an IC50 in assay [2] of 56.4 nM.
